Data reported in article PMC9828337 (Angewandte Chemie (International Ed. in English), 2022).

Test system: CurKC-CurALP and CurKCkinase-CurKClyase
Experiment: MST binding with or without an ATP analog
Parameters: species or system Thermomonospora curvata DSM43183
Details: three replicates

Nc1ncnc2c1ncn2[C@@H]1O[C@H](COP(=O)(O)OP(=O)(O)OP(=O)(O)O)[C@@H](O)[C@H]1O [ATP]
effect on leader binding and lyase–kinase association: little impact on the leader binding and lyase–kinase association
